Data reported in US10709711B2 (G1 Therapeutics, Inc., priority 2013, dated 2020).

Columns and labels:
[1] = tested on: SupT1 cells (human T-cell lymphoblastic leukemia); assay: Inhibition of cellular proliferation, SupT1 cells (CellTiter-Glo); format: cell-based; settings: SUP-T1, 96 h, cell viability after four days, nine point dilution series 10 uM to 1 nM
Method: (§1) The SupT1 cells were seeded in Costar (Tewksbury, Mass.) 3093 96 well tissue culture treated white walled/clear bottom plates. A nine point dose response dilution series from 10 uM to 1 nM was performed and cell viability was determined after four days as indicated using the CellTiter-Glo® assay (CTG; Promega, Madison, Wis., United States of America) following the manufacturer's recommendations. Plates were read on a BioTek (Winooski, Vt.) Syngergy2 multi-mode plate reader. The Relative Light Units (RLU) were plotted as a result of variable molar concentration and data was analyzed using Graphpad (LaJolla, Calif.) Prism 5 statistical software to determine the IC50 for each compound.
(§2) The compounds listed in Table 1 were tested for the inhibition of cellular proliferation using SupT1 (human T-cell lymphoblastic leukemia) and Daudi (human B-lymphoblastoid cell from Burkitt's Lymphoma patient).

[2] = tested on: Daudi (human B-lymphoblastoid cell from Burkitt's Lymphoma patient); assay: Inhibition of cellular proliferation, Daudi cells (CellTiter-Glo); format: cell-based; settings: EC50 measured as illustrated in Example 150 (CellTiter-Glo)
Method: as §1, §2

EC50 [1] [nM]	EC50 [2] [nM]	Compound
77	1690	O=C1NCC2(CCCC2)n2c1cc1cnc(Nc3ccc(N4CCC(N5CCOCC5)CC4)cn3)nc12 [WW]
36	318	O=C1NCC2(CCCCC2)n2c1cc1cnc(Nc3ccc(N4CCC(N5CCC(C(F)(F)F)CC5)CC4)cn3)nc12 [X]
272	584	CN1CCN(c2ccc(Nc3ncc4cc5n(c4n3)C3(CCCC3)CNC5=O)nc2)CC1 [ZZ]

The next lines start with the molecule.

Compound	EC50 [1] [nM]	EC50 [2] [nM]
CC(C)C[C@@H]1CNC(=O)c2cc3cnc(Nc4ccc(N5CCNCC5)cn4)nc3n21 [WWW]	264	1270
CC1CN(c2ccc(Nc3ncc4cc5n(c4n3)C3(CCCCC3)CNC5=O)nc2)CCN1CC(C)(C)O (centres unmarked) [W]	57	731
CC(C)C[C@@H]1CNC(=O)c2cc3cnc(Nc4ccc(N5CCN(C)CC5)cn4)nc3n21 [XXX]	270	1170
C[C@H](O)CN1CCN(c2ccc(Nc3ncc4cc5n(c4n3)C3(CCCC3)CNC5=O)nc2)C[C@H]1C [XX]	94	499
CN(C)C1CCN(c2ccc(Nc3ncc4cc5n(c4n3)C3(CCCC3)CNC5=O)nc2)CC1 [YY]	97	356
O=C1NCC2(CCCCC2)n2c1cc1cnc(Nc3ccc(C(=O)N4CCNCC4)cn3)nc12 [Y]	85	548
C[C@H](O)CN1[C@H](C)CN(c2ccc(Nc3ncc4cc5n(c4n3)C3(CCCCC3)CNC5=O)nc2)C[C@@H]1C [Z]	87	359
